Test results reported in US6020360A, “Anticancer property of dithiolopyrrolones” (priority 1996, dated 2000).
In brackets after ≈: the same amount, converted by molar mass.

What was measured:
[1] = test system: cervical cancer cell line Hela; assay: Anticancer activity, SRB growth assay in cervical cancer cell line Hela (3 days); assay type: cell-based; conditions: Homo sapiens, 72 h, 2,500 cells/well, 570 nm, 0.008-1 μg/ml tested
Experimental: (§1) These assays are commonly used by those skilled in the art and are accepted as indicative of anticancer activity in mammals. The anticancer activities of dithiolopyrrolones have been determined in cell cultures of human colon cancer cell line HT-29, breast cancer cell line MCF-7 and cervical cancer cell line Hela. The procedure was carried out using the method described by Skehan et al. (1990). Briefly, cancer cells were grown in RPMI-1640 medium with glutamine and 10% fetal calf serum, and were harvested from exponential-phase maintenance cultures. The harvested cells were counted and dispensed into replicate 96-well culture plates in 180 μl volumes for each well with a cell density of 2,500 cells/well. The cells were allowed to settle for about 4 hours at 37° C. Then 20 μl of medium containing the test dithiolopyrrolone was added into each well, resulting in a final test compound concentration between 0.008-1 μg/ml. The test plates were then incubated at 37° C. The test was terminated 3 days after incubation by adding to each well 50 μl of cold 50% trichloroacetic acid. The cells were fixed for an hour at 4° C. and then washed five times with tap water. The washed plates were air-dried and stained for 30 minutes with 0.4% (wt/vol) sulforhodamine B (SRB) which was dissolved in 1% acetic acid. At the end of the staining period, the SRB was removed and plates were quickly rinsed, five times with 1 % acetic acid. After being rinsed, the plates were air-dried and 100 μl of 10 mM tris base (pH 10.5) were added to each well to solubilize the dye bound to the cells. The plates were placed on a gyratory shaker and shaken (100 rpm) for 10 minutes. Finally, the plates were read in a microtiter plate reader at 570 nm.

[2] = test system: platelet aggregation; conditions: in vitro; Ninomiya et al., 1980; cited from earlier work
[3] = test system: glutathione; conditions: Sharma et al., 1994; cited from earlier work
[4] = test system: breast cancer cell line MCF-7; assay: Anticancer activity, SRB growth assay in breast cancer cell line MCF-7 (3 days); assay type: cell-based; conditions: Homo sapiens, MCF7, 72 h, 2,500 cells/well, 570 nm, 0.008-1 μg/ml tested
Experimental: as §1, with “At the end of the staining period, the SRB was removed and plates were quickly rinsed, five times with 1 % acetic acid. After being rinsed, the plates were air-dried and 100 μl of 10 mM tris base (pH 10.5) were added to each well to solubilize the dye bound to the cells. The plates were placed on a gyratory shaker and shaken (100 rpm) for 10 minutes.” left out

[5] = test system: mammary cells; conditions: mammary cells exposed to carcinogens; Menta and Moon, 1991; Arnold et al., 1995; cited from earlier work
[6] = test system: human colon cancer cell line HT-29; assay: Anticancer activity, SRB growth assay in human colon cancer cell line HT-29 (3 days); assay type: cell-based; conditions: HT-29, 72 h, HT29, 2,500 cells/well, 570 nm, 0.008-1 μg/ml tested
Experimental: as §1, with “At the end of the staining period, the SRB was removed and plates were quickly rinsed, five times with 1 % acetic acid. After being rinsed, the plates were air-dried and 100 μl of 10 mM tris base (pH 10.5) were added to each well to solubilize the dye bound to the cells. The plates were placed on a gyratory shaker and shaken (100 rpm) for 10 minutes.” left out

[7] = test system: ornithin decarboxylase (ODC); conditions: Sharma et al., 1994; cited from earlier work
[8] = test system: RNA polymerase; conditions: Jimenez et al., 1973, Tipper; cited from earlier work
[9] = test system: membrane; conditions: Ninomiya et al., 1980; cited from earlier work

Structure (SMILES) | IC50 [1] [µg/mL] | inhibition of platelet aggregation (in words) [2] | reduction of glutathione (in words) [3] | IC50 [4] [µg/mL] | inhibition of promotion of carcinogenesis-associated activities (in words) [5] | IC50 [6] [µg/mL] | inhibition of ODC (in words) [7] | inhibition of RNA polymerase synthesis (in words) [8] | membrane stabilization activity (in words) [9]
CC(=O)Nc1c2sscc-2n(C)c1=O [XN0, N-(4,5-dihydro-4-methyl-5-oxo-1,2-dithiolo[4,3-b]pyrrol-6-yl)acetamide] | 0.07 (≈ 0.307 µM) | inhibits platelet aggregation in vitro | induces the reduction of glutathione | 0.08 (≈ 0.35 µM) | inhibits the promotion of several other activities possibly associated with the occurrence of carcinogenesis in mammary cells | 0.03 (≈ 0.131 µM) | inhibits OCD | inhibits RNA polymerase synthesis | has membrane stabilization activity
CCCCCC(=O)Nc1c2sscc-2n(C)c1=O [XN1, N-(4,5-dihydro-4-methyl-5-oxo-1,2-dithiolo[4,3-b]pyrrol-6-yl)hexanoamide] | 0.13 (≈ 0.457 µM) |  |  |  |  |  |  |  | 
CC(C)CCCC(=O)Nc1c2sscc-2[nH]c1=O [XN3, N-(4,5-dihydro-5-oxo-1,2-dithiolo[4,3-b]pyrrol-6-yl)5-methylhexanoamide] | 0.09 (≈ 0.316 µM) |  |  |  |  |  |  |  | 
